Reference: US20090170749A1, “Novel Compounds Which Interact With PEA-15” (Institut National De La Sante Et De La Recherche Medicale …, priority 2005, published 2009)
Entries after “also recorded” stand apart in the source; their conditions may differ.

Columns and labels:
[1] = target: T1, GFP-PEA-15 (Mus musculus, UniProt Q62048); assay: Detection of the interaction of 6D6-1 with GFP-PEA-15 by FRET in 3T3-GFP-PEA-15 cells; format: cell-based; settings: 6D6-1 tested at 10^-4 M and 10^-5 M, 60 minutes, excitation 465 nm
T1 construct: expressed in transfected cells
Procedure: The cell line 3T3 expressing the GFP-PEA-15 (3T3-GFP-PEA-15 cell) was obtained as described by FORMSTECHER et al. (Dev. Cell., 2001, 1:239) by transfection of NIH3T3 cells with a EGFP-PEA-15 plasmide obtained as described by KITSBERG et al. (J. Neurosci., 1999, 19: 8244).
Clones resistant to the neomycin (G418) were selected and cultivated in a DMEM (Roche) medium supplemented with 10% of foetal calf serum, 2 mM of glutamine, penicillin (5 IU/ml) and streptomycin ([…]).
The GFP-PEA-15 protein expression was checked by the measurement of the fluorescence of the living cells and a WESTERN transfer analysis with an anti-GFP antibody (Roche, cat. No. 1,814,460 mixture of two monoclonal antibodies obtained from a mouse (clone 7.1 and clone 13.1)) and an anti-PEA-15 (rabbit polyclonal antibody, Sharif et al., Neuroscience, 126: 263, 2004).
The 3T3-GFP-PEA-15 cells are then cultivated up to confluence in a HAM-F12 medium comprising penicillin (10 000 U/ml)/streptomycin (10 000 μg/ml), 7% of foetal calf serum (BIOWHITTAKER) before the fluorescence resonance energy transfer (FRET) experiences. […]
After adding the 6D6-1 compound, the cells are gently agitated (100 rpm) for 60 minutes before the fluorescence read-out, in order to enable the compounds to diffuse and enter into the cells. […]
The GFP protein excited at 465 nm emits a fluorescence signal at 535 nm.

[2] = tested on: ERK; assay: Effect of 6D6-1 on ERK and PEA-15 subcellular location in primary astrocyte cultures (confocal microscopy); format: cell-based, mouse; settings: primary astrocytes, 24 hours without serum; 50 μM 6D6-1 for 2 hours 15 minutes
Procedure: Primary astrocyte cultures were prepared from cortex and striatum of mouse embryos (day 16) as described by ARAUJO et al. (J. Biol. Chem., 1993, 268: 5911).
The primary astrocyte cultures were maintained for 24 hours in the absence of serum, a condition known to induce a mainly cytoplasmic location of ERK.
The cells were then treated or not with 50 μM of the 6D6-1 compound for 2 hours 15 minutes.
The subcellular location of ERK and PEA-15 was observed by confocal microscopy after labeling the cells with fluorescent antibodies.
The cells were washed twice with PBS (Dulbecco phosphate saline buffer, without CaCl2 nor MgCl2, Sigma), and fixed with 4% paraformaldehyde in PBS (pH 7.5), for 15 minutes, then washed twice with PBS comprising 0.1 M of glycine, at ambient temperature.
Then, the cells were incubated for 5 minutes in PBS containing 0.2% of X-100 triton.
The non-specific sites were blocked with PBS containing 10% of normal goat serum (NGS) for one hour at ambient temperature.
Then the cells were incubated overnight at 4° C. with PEA-15 specific antibodies (rabbit polyclonal antibody, Sharif et al., Neuroscience, 2004) or ERK specific antibodies (rabbit polyclonal antibody, Santa Cruz K-23 (ref. Sc-94)), diluted in PBS containing 1.5% of NGS. […]

[3] = target: T2, GST-PEA-15 fusion protein (Mus musculus, UniProt Q62048); assay: 6D6-1/PEA-15 protein interaction: fluorescence of glutathione Sepharose beads carrying GST-PEA-15; format: binding
T2 construct: made in house
Procedure: The GST-PEA-15 fusion protein was obtained according to the protocol described by Kitsberg et al. (J. Neurosci, 1999, 19: 8244).
The GST-PEA-15 fusion proteins were recovered after lysis of bacteria and were incubated together with a Sepharose bead covered with glutathione.
The beads thus obtained are incubated in the presence of 1 or 5 μM of 6D6-1, in a 20 mM Tris-HCl, pH 7.4; 100 mM NaCl; 1 mM MgCl2; 1% Triton X-100 buffer).
After a series of three washings, the beads are dried on a cellulose membrane and the fluorescence is quantified by means of a phosphoimager (Biorad), by measuring the fluorescence of the lissamine with excitation at 543 nm and measurement of the emission at 590 nm.
The results are the average of three independent experiences.

T2 sequence (Q62048 whole entry, the tested form may be a part): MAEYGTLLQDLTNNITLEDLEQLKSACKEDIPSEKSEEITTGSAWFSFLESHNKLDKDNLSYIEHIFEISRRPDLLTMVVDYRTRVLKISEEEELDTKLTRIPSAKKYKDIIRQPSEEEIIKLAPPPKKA
T1 sequence (Q62048 whole entry): as the sequence (Q62048 whole entry, the tested form may be a part) above

## 1-methyl-piperidin-4-His(Bzl)-Lys(o-Lissamine)-1-methyl-1H-imidazol-4-yl)-acetamide [Compound 6D6-1]
[1]
  fluorescence resonance energy transfer (FRET) on binding to GFP-PEA-15, fluorescence signal at 590 nm: enables a fluorescence resonance energy transfer (FRET)
[2]
  subcellular location of ERK: relocation of the ERK protein in the core; also recorded: relocation of ERK in the nucleus
  subcellular location of PEA-15: remains cytoplasmic
[3]; 1 or 5 μM 6D6-1, excitation 543 nm, emission 590 nm, average of three independent experiences
  average intensity of fluorescence of beads carrying GST-PEA-15: depends upon the concentration of the compound
[3]; general statement of the inventors' observation
  interaction with PEA-15 protein: able to interact in a specific way with a PEA-15 protein
